Laboratory results published in patent EP0101294B1, “Composition for protecting and healing gastro-duodenal mucosa and the liver of mammals” (THE REGENTS OF THE UNIVERSITY OF CALIFORNIA, priority 1982, dated 1984).
Marks after values point to notes of the source that are not given here.

Key:
Assay type in all cases: in vivo, Spraque-Dawley rats
liver = test: Study 7: liver protection against ethanol, electron microscopy of hepatocytes; conditions: 1 ml 120 mM AA (37 mg) in PL by gavage 1 hour before 2.5 ml 100% ethanol; sacrificed 24 hours later
Method: 40 rats were given, by gavage, either 1 ml of 5 mM PL solution (as a control) or a 1 ml of 120 mM arachidonic acid in the 5 mM PL solution. One hour later the rats were given 2.5 ml of 100% ethanol and the animals sacrificed 24 hours later.
The liver was then removed and specimens fixed for 2 hours in 3.5% purified glutaraldehyde (buffered in 0.1 M phosphate of 7.4). The liver specimens were washed with buffer and postfixed in 1% osmium tetroxide at 0°C for 1 hour. After dehydration with graded ethanol the tissue was embedded in epoxy resin. Silver gray thin sections of the specimen were double stained with 2% uranyl acetate followed by lead citrate and examined with an RCA electron microscope.

gastric mucosa [1] = test: Scanning electron microscopy of gastric mucosa after ethanol; conditions: 3 hours after ethanol, arachidonic acid pretreated rats
Text: Gastric mucosal specmens, fixed in 3.5% buffered glutaraldehyde were processed routinely for scanning electronmicroscopy and evaluated in a JOEL-35 scanning electronmicroscope operated at 20 kV.

gastric mucosa [2] = test: Study 5: arachidonic acid mucosal protection against taurocholic acid; conditions: 1 ml 120 mM AA in PL; 3 ml 80 mM TCA in 0.1 n HCl twice; 3 hours after second TCA dose
Method: (§1) The animals used in the examples were Spraque-Dawley rats (225 to 250 grams bodyweight). Twenty-four hours prior to the experimentation the animals were fasted in wire-bottomed cages to prevent coprophagy.
Rats were given intragastric treatment by peroral tube with 1 ml of PL solution or 1 ml of PL solution containing 120 mM arachidonic acid (AA). The rats then received, intragastrically, 3 mls of a 80 mM solution of taurocholic acid (TCA) dissolved in 0.1 n in HCI, adminstered twice: one or two hours after PL or AA pretreatment. Animals were sacrificed 3 hours after second TCA administration.
Gastric mucosa was assessed macroscopically and histologically for damage in a similar manner as in studies with ethanol. […] These lesions corresponding histologically to necrotic lesions were similar to those seen after ethanol.

gastric mucosa [3] = test: Study 2: arachidonic acid mucosal protection 15 hours after ethanol, computerized analysis of hemorrhagic area; conditions: 1 ml 120 mM AA (37 mg) in PL intragastric 1 hour before 2 ml ethanol; evaluated 15 hours after ethanol; percent of total glandular mucosal area
Method: as §1
One ml of 120 mM arachidonic acid solution (37 mg arachidonic acid) or 5 mM PI solution was instilled into the stomach 1 hour prior to the intragastric administration of 2 ml ethanol. The animals were killed 15 hours after ethanol administration and their stomachs were examined.
A camera with 100 mm macro lens was used to photograph the mucosal surface of the stomach. The same type of film and identical conditions of specimen distance from the lens, light intensity and film development were used throughout the study. Color slides were evaluated by a computerized image analysis. Each slide was converted to a black-and-white video image consisting of 65,000 points. White represented normal gastric mucosa, while gray or black represented hemorrhagic changes. […] Absolute white was given a 255 value while absolute black was given a value of 0. Boundaries delineating the glandular mucosa were drawn on the digital video image with a sonic pen. All spatial and contrast information was stored on a magnetic disk. […] The areas of hemorrhagic changes were expressed as the percentage of the entire gastric glandular mucosal area.

gastric mucosa [4] = test: Study 1: arachidonic acid mucosal protection 3 hours after ethanol, computerized analysis of hemorrhagic area; conditions: percent of total glandular mucosal area
Method: as §1
Animals were given by gavage 1 ml of either saline, or 5 mM PL solution in saline, or 1 ml of the PL-saline solution containing arachidonic acid in 30, 60 and 120 mM concentrations respectively. One-half hour or 1 hour later, 2 ml of absolute ethanol were instilled into the stomach by gavage. Three hours later the animals were sacrificed and their stomachs removed.
A camera with 100 mm macro lens was used to photograph the mucosal surface of the stomach. The same type of film and identical conditions of specimen distance from the lens, light intensity and film development were used throughout the study. Color slides were evaluated by a computerized image analysis. Each slide was converted to a black-and-white video image consisting of 65,000 points. White represented normal gastric mucosa, while gray or black represented hemorrhagic changes. […] Absolute white was given a 255 value while absolute black was given a value of 0. Boundaries delineating the glandular mucosa were drawn on the digital video image with a sonic pen. All spatial and contrast information was stored on a magnetic disk. Each glandular mucosal area was classified interactively by slicing the spectrum of mucosal values into 2 or more subgroups and by displaying the resultant simplified digital image for verification with the more complex analog photographic input. Once a classification scheme was established, a spatial rendition of the picture's point was printed and plotted to scale on paper. A summary of the computer results was also printed and included boundary values for each gray-level slice and the absolute and relative areas of each class. The areas of hemorrhagic changes were expressed as the percentage of the entire gastric glandular mucosal area.

gastric mucosa [5] = test: Histological studies of gastric mucosa (light microscopy)
Method: Mucosal specimens 5 mm in width were cut from the forestomach to the pylorus. The specimens were obtained (a) 60 minutes after intragastric administration of 1 ml of solution containing either saline, PL or 120 mM arachidonic acid or (b) 3 hours after intragastric instillation of 2 ml of ethanol in animals which had received 1 ml of solution containing either saline or PL or 120 mM arachidonic acid 1 hour before ethanol. Specimens were fixed in buffered 10% formalin and stained. Coded specimens were examined "blindly" by light microscopy. In the histological evaluation special attention was paid to the continuity of the surface epithelium layer, presence or absence of hemorrhagic erosions, edema of the submucosa and infiltration with polymorphonuclear neutrophils.

PGE2 = PGE2 measurement in gastric contents (radioimmunoassay, bioassay)
Method: PGE2 was measured by direct radioimmunoassay using antisera generated in rabbits by immunization of PGE2 linked to bovine thyroglobulin. For additional confirmation of PGE2 measurements, samples were also subjected to bioassay. After addition of approximately 5000 CPM of ^3H-labeled PGE2 for recovery calculations, samples were adjusted to pH 4.3 with 0.5 M phosphate buffer and extracted twice with ethyl acetate. The organic layer was subjected to thin layer chromatography (benzene:dioxane:acetic acid, 90:60:3), and the PGE2 fraction was extracted with methanol, dried and reconstituted in 0.9% NaCl for assay. A bioassay cascade (according to Vane) was used to assay simultaneously the samples in 2 aliquot sizes and on 3 rat stomach strips. The concentration of PGE2 in the gastric contents were measured in 2 groups of rats 30 or 60 minutes following intragastric installation of 1 ml of 120 mM arachidonic acid or 1 ml PL in order to determine the extent of arachidonic acid conversion to PGE2 by the gastric mucosa. The spontaneous release of PGE2 into the gastric lumen was assessed in animals receiving PL pretreatment only. In addition, PGE2 concentration in the original 120 mM arachidonic acid solution was measured before intragastric instillation.

gastric mucosa [6] = test: Study 6: arachidonic and linoleic acid mucosal protection against acetylsalicylic acid; conditions: for Macroscopic mucosal changes (lesion index, number of lesions x severity): 1 ml 120 mM AA or 240 mM LLC in PL 1 hour before 200 mg/kg aspirin intragastrically, 4 hours after acetyl salicylic acid; for Histologic evaluation: deep necrotic lesions / Mucosa by scanning electromicroscopy: 4 hours after aspirin, 120 mM AA or 240 mM LLC pretreatment
Method: as §1
Rats were given intragastric treatment by peroral tube with 1 ml of PL solution, 1 ml of PL solution containing 120 mM arachidonic acid (AA), or 1 ml of PL solution containing 240 mM linoleic acid (LLC). One hour after such treatment a suspension of 200 mg/kg bodyweight of aspirin in 0.1 n HCI containing 1% methyl cellulose was administered intragastrically in 1 ml volume. The animals were sacrified 4 hours after acetyl salicylic acid administration.
• 1) Macroscopic quantitation of mucosal changes based on scoring system estimating presence or absence of hemorrhagic lesions, their number and severity graded on arbitrary scale 1 to 4. Lesion index, expressed as an average score (number of lesionsxseverity) was estimated per each group of animals. • 2) Mucosal histology • 3) Scanning electron microscopy

gastric mucosa [7] = test: Study 3: intragastric versus intrajejunal arachidonic acid, pylorus ligated, ethanol-induced gastric mucosal injury; conditions: 1 hour before 2 ml ethanol, evaluated 2 hours after ethanol
Method: as §1
The next series of experiments was designed to compare the effect of intragastric to intrajejunal pretreatment with arachidonic acid on ethanol-induced gastric mucosal injury. The animals were anesthetized with nembutal (50 mg nembutal per kg body weight intraperitoneally), their abdomens were opened and either 1 ml of 120 mM arachidonic acid or 5 mM PL was installed intragastrically or 1 ml of 120 mM arachidonic acid intrajejunally with a polyethylene catheter introduced through a small duodenal incision. The pylorus was ligated immediately after solution instillation. One hour later the gastric contents were removed and 2 ml of ethanol were instilled through the catheter. The stomach was examined 2 hours later.
A camera with 100 mm macro lens was used to photograph the mucosal surface of the stomach. The same type of film and identical conditions of specimen distance from the lens, light intensity and film development were used throughout the study. Color slides were evaluated by a computerized image analysis. […] The areas of hemorrhagic changes were expressed as the percentage of the entire gastric glandular mucosal area.

gastric mucosa [8] = test: Study 4: linoleic acid mucosal protection against ethanol; conditions: 3 hours after ethanol
Method: Twenty-four hours prior to the experimentation the animals were fasted in wire-bottomed cages to prevent coprophagy.
The rats were given intragastric treatment by peroral tube 1 ml of PL solution; 1 ml of the PL solution containing 120 mM linoleic acid (LLC) or 240 mM LLC; or 1 ml of 240 mM oleic acid solubilized in 5 mM PL. […] Macroscopic and histologic mucosal changes were evaluated as in the studies with arachidonic acid.

[9] = histology 3 hours after 2 ml absolute ethanol, pretreated with 1 ml 120 mM AA+PL 1 hour before
[10] = 1 ml 240 mM in 5 mM PL intragastric pretreatment

CCCCC/C=C\C/C=C\C/C=C\C/C=C\CCCC(=O)O [AA, arachidonic acid]
ultrastructural changes in the hepatocytes (liver): most of the alcohol induced changes were virtually prevented | Mucosal surface by scanning electronmicroscopy (gastric mucosa [1]): nondisrupted and normal appearance | mucosal lesions, macroscopically and histologically (gastric mucosa [2]): not detectable | Hemorrhagic area*(%) (gastric mucosa [3]): 0.6% | Hemorrhagic area*(%) (gastric mucosa [4]; 1 ml 30 mM AA in 5 mM PL by gavage 1 hour before 2 ml ethanol, stomach evaluated 3 hours after ethanol): 15.4% | Hemorrhagic area*(%) (gastric mucosa [4]; 1 ml 60 mM AA in 5 mM PL by gavage 1 hour before 2 ml ethanol, evaluated 3 hours after ethanol): 3.0% | Hemorrhagic area*(%) (gastric mucosa [4]; 1 ml 120 mM AA in 5 mM PL by gavage 1 hour before 2 ml ethanol, evaluated 3 hours after ethanol): 0.6% | Hemorrhagic area*(%) (gastric mucosa [4]; Group E: 1 ml 120 mM AA in 5 mM PL by gavage 30 minutes before 2 ml ethanol, evaluated 3 hours after ethanol): 0.8% | Histological changes of gastric mucosa after the acid alone (gastric mucosa [5]; 60 minutes after intragastric 1 ml 120 mM arachidonic acid, no ethanol): did not change the appearance of the gastric mucosa | Edema of submucosa accumulation of polymorphonuclears (gastric mucosa [5]; [9]): Present | Hemorrhagic erosions (gastric mucosa [5]; [9]): Absent | The surface epithelium layer (gastric mucosa [5]; [9]): Present, continuous (minor focal defects seen occasionally) | values of PGE2 in the gastric content higher than in animals that received PL only (PGE2; 30 and 60 minutes after intragastric instillation, relative to PL group): 5,000-13,000 | PGE2 concentration (ng/ml) (PGE2; gastric contents 30 min after intragastric instillation of 1 ml 120 mM AA): 7360.0* ng/ml | PGE2 concentration (ng/ml) (PGE2; gastric contents 60 min after intragastric instillation of 1 ml 120 mM AA): 4100.0* ng/ml | Macroscopic mucosal changes (lesion index, number of lesions x severity) (gastric mucosa [6]): 2±0.3 | Histologic evaluation: deep necrotic lesions (gastric mucosa [6]): deep necrotic lesions did not occur | Mucosa by scanning electromicroscopy (gastric mucosa [6]): nearly normal mucosa | Hemorrhagic area*(%) (gastric mucosa [7]; 1 ml 120 mM AA intragastrically): 5.3% | Hemorrhagic area*(%) (gastric mucosa [7]; 1 ml 120 mM AA intrajejunally): 28.1%

CCCCC/C=C\C/C=C\CCCCCCCC(=O)O [LLC, linoleic acid]
macroscopic hemorrhagic lesions, % of glandular mucosal area (gastric mucosa [8]; 1 ml 120 mM in 5 mM PL intragastric pretreatment): 6.5±1% | macroscopic hemorrhagic lesions, % of glandular mucosal area (gastric mucosa [8]; [10]): 1.3±0.5% | Mucosal histology: deep necrotic lesions (gastric mucosa [8]): no deep necrotic lesions were present | edema in the forestomach (gastric mucosa [8]; macroscopic, group pretreated with linoleic acid): marked edema in the forestomach | Macroscopic mucosal changes (lesion index, number of lesions x severity) (gastric mucosa [6]): 8±1 | Histologic evaluation: deep necrotic lesions (gastric mucosa [6]): deep necrotic lesions did not occur | Mucosa by scanning electromicroscopy (gastric mucosa [6]): nearly normal mucosa

CCCCCCCC/C=C\CCCCCCCC(=O)O [oleic acid, reference compound]
macroscopic hemorrhagic lesions, % of glandular mucosal area (gastric mucosa [8]; [10]): 29.1±3% | Mucosal histology: deep necrotic lesions (gastric mucosa [8]): deep hemorrhagic necrotic lesions penetrating into muscularis mucosa were present
